{"source": "patent US20230165811A1", "about": "“METHOD FOR TREATING SYMPTOMS OF VIRAL INFECTIONS” (priority 2020, published 2023)", "system": "Murine RAW 264.7 macrophages", "assay": "LPS-induced TNF-α production in RAW 264.7 macrophages (ELISA)", "assay_type": "cell-based", "settings": "1 μM compound for 1 h, then 1 μg/mL LPS, vs vehicle (DMSO), FIG. 1", "description": "Murine RAW 264.7 macrophages (ATCC TIB-71) were cultured in Dulbecco's Modified Eagle's Medium supplemented with fetal bovine serum (FBS) at a final concentration of 10%. The cells were maintained in T75 flasks in humidified atmosphere with 5% CO2 at 37° C. Subculturing was performed every 2-3 days with a cellscraper.\nRAW 264.7 macrophages were seeded onto 24-well plate in 1 mL of complete growth medium and left overnight to enable cell attachment. Next day the cells were washed with phosphate buffered saline and the medium was replaced with 0.5 mL of low serum medium containing 1% FBS. After 3 h of incubation, the medium was replaced with serum-free medium (0.5 mL) and incubated for 1.5 h. Then, the cells were exposed to 1 μM (R,R′)-4′-methoxy-1-naphthylfenoterol (MNF) or vehicle (DMSO) for 1 h followed by stimulation with 1 μg/mL lipopolysaccharide (LPS, E. coli 055: B5). Media were collected at the following timepoints after LPS administration: 0 h, 2 h, 4 h, 6 h, 8 h, and 10 h.\nTNF-α was measured in all collected media samples using Quantikine ELISA kit (MTA00B) from R&D Systems according to manufacturer's protocol.\nStatistical analysis Obtained data were assessed and plotted using GraphPad Prism 8.4.2. Two-way analysis of variance (ANOVA) followed by Sidak post-hoc test was used to compare mean TNF-α concentration across treatments and exposure times.", "data": [{"compound": "COc1ccc(C[C@@H](C)NC[C@H](O)c2cc(O)cc(O)c2)c2ccccc12", "note": "[(R,R′) MNF, (R,R′)-4′-methoxy-1-naphthylfenoterol]", "values": [{"measurement": "inhibition of LPS-induced production of TNF-α", "setting": "8 h timepoint after LPS", "result": "significant inhibition"}, {"measurement": "inhibition of LPS-induced production of TNF-α", "setting": "10 h timepoint after LPS", "result": "significant inhibition"}]}]}
